Where “and” joins values, the source holds several entries; their conditions need not be identical. Equal values may be shown once.
Test system: murine macrophages (RAW 267.4 cell line) stimulated with LPS from E. coli
Assay: In vitro anti-inflammatory test: inhibition of NO production in LPS-stimulated murine macrophages (Griess reaction)
Format: cell-based
Conditions: for Anti-inflammatory ratio: ratio between anti-inflammatory activity and toxicity (IC50 NO release and IC50 cell viability)
Description: Low-grade inflammation is strongly implicated in degenerative processes in human skin such as photoaging and atopy. The reduction of low-intensity inflammatory reactions by topical products may be necessary in the event of cutaneous aggression, to obtain optimal healing and restore the physiological balance of human skin. In order to identify new anti-inflammatory candidates, an in vitro anti-inflammatory test was developed with a murine cell line: the murine macrophage test RAW 267.4. This test was used to monitor the inhibitory effects of chemical compounds or natural extracts on the low-intensity inflammatory cascade leading to overproduction of nitrogen oxide (NO) in the endothelial wall of blood vessels.
The study was carried out to evaluate the ability of cannabidiol, palmitoyl tripeptide-8 (active ingredient in Neutrazen™), and their mixture to inhibit the pro-inflammatory cascade leading to the production of NO in murine macrophages stimulated by liposaccharides (LPS).
The in vitro anti-inflammatory test is based on the ability of murine macrophages to generate a strong inflammatory response when stimulated by antigens such as LPS. Immobilized murine macrophages (RAW 267.4 cell line) are stimulated with LPS from E. coli and exposed for 24 hours. At the end of the incubation period, the production of NO is evaluated indirectly by measuring the accumulation of nitrite/nitrate, stable final products of the oxidation of NO, in the culture medium using a method spectrophotometric based on the Griess reaction.
MURINS RAW 267.4 Macrophage cell line (Sigma-Aldrich, No. P6110401, Lot. 091006), low number of passages (less than 50).
Complete medium: DMEM with stabilized L-glutamine (Dulbecco's Minimum Essential Medium, PAN BIOTECH. Lot 974251) supplemented with Penicillin 100 IU/ml and streptomycin 100 μg/m1 (PAN BIOTECH, Lot 225614), and 10% inactivated calf serum (PAN BIOTECH, Lot P460518), pH 7.2, freshly prepared, stored for less than 3 weeks.
Cannabidiol (CBD) is diluted in DMSO (10 mg/mL storage solution), and subjected to an ultrasonic bath for 20 minutes. The Neutrazen™ solution is diluted in PBS (Phosphate buffer saline, Sigma-Aldrich).
The negative control: DMSO 1% The positive control: Dexamethasone (Sigma-Aldrich) 1-5-10-50-100 μM.
RAW 267.4 murine macrophages were inoculated into 48-well tissue culture plates at a concentration of 1.10^5 cells/ml (200 μl/well) and incubated for 24 hours at 37° C. (5% CO2).
At the end of the incubation period, the culture medium was replaced with 200 μl of medium containing the appropriate concentrations of the material to be tested, and the cells were incubated at 37° C. (5% CO2) for one hour.
At the end of the incubation period, pro-inflammatory E. coli LPS was added to the cell cultures (1 μg/ml. Then the cells were incubated at 37° C. (5% CO2) for 24 hours.
The amount of NO released was measured in the culture supernatant by the Griess reaction. 100 μl of the supernatants were transferred into the wells of a 96-well tissue culture plate, and modified Griess reagent (SIGMA-ALDRICH) were added to each well. After a period of 15 min at room temperature, the Optical Density (OD) of each well was read at a wavelength of 540 nm by an Infinite M200 Pro fluorescence-luminescence reader (TECAN).
The concentrations of test material causing a 50% decrease in NO release (IC50 (NO release)) and a 50% decrease in cell viability (IC50 (cell viability)) respectively were calculated using TableCurve software Version 2.0.
The anti-inflammatory ratio corresponds to the ratio between anti-inflammatory activity and toxicity. It is expressed as follows: […]
Analysis of the anti-inflammatory activity and of the cell viability of the cannabidiol/palmitoyl tripeptide-8 (Neutrazen™) association in a mixture by isobologram analysis.

C=C(C)[C@@H]1CCC(C)=C[C@H]1c1c(O)cc(CCCCC)cc1O [CBD]
NO production (% as compared to the negative control) (CBD 0.01 weight % in mixture with NeutraZen 0.01%): 94.48% and 98.73% and 100.63%
NO production (% as compared to the negative control) (CBD 0.01 weight % in mixture with NeutraZen 0.025%): 98.77% and 101.91% and 100.00%
NO production (% as compared to the negative control) (CBD 0.01 weight % in mixture with NeutraZen 0.05%): 100.00% and 103.82% and 103.16%
NO production (% as compared to the negative control) (CBD 0.01 weight % in mixture with NeutraZen 0.1%): 101.23% and 103.82% and 98.10%
NO production (% as compared to the negative control) (CBD 0.025 weight % in mixture with NeutraZen 0.01%): 87.12% and 89.17% and 92.41%
NO production (% as compared to the negative control) (CBD 0.025 weight % in mixture with NeutraZen 0.025%): 92.64% and 96.18% and 96.84%
NO production (% as compared to the negative control) (CBD 0.025 weight % in mixture with NeutraZen 0.05%): 93.87% and 100.00% and 98.10%
NO production (% as compared to the negative control) (CBD 0.025 weight % in mixture with NeutraZen 0.1%): 103.07% and 101.27% and 100.63%
NO production (% as compared to the negative control) (CBD 0.05 weight % in mixture with NeutraZen 0.01%): 84.66% and 85.99% and 88.61%
NO production (% as compared to the negative control) (CBD 0.05 weight % in mixture with NeutraZen 0.025%): 84.66% and 87.90% and 87.34%
NO production (% as compared to the negative control) (CBD 0.05 weight % in mixture with NeutraZen 0.05%): 84.05% and 86.62% and 87.97%
NO production (% as compared to the negative control) (CBD 0.05 weight % in mixture with NeutraZen 0.1%): 79.75% and 84.71% and 82.28%
NO production (% as compared to the negative control) (CBD 0.1 weight % in mixture with NeutraZen 0.01%): 80.37% and 77.07% and 85.44%
NO production (% as compared to the negative control) (CBD 0.1 weight % in mixture with NeutraZen 0.025%): 79.75% and 80.89% and 82.28%
NO production (% as compared to the negative control) (CBD 0.1 weight % in mixture with NeutraZen 0.05%): 79.75% and 79.62% and 83.54%
NO production (% as compared to the negative control) (CBD 0.1 weight % in mixture with NeutraZen 0.1%): 72.39% and 74.52% and 74.68%
NO production (% as compared to the negative control) (CBD 0.25 weight % in mixture with NeutraZen 0.01%): 53.37% and 61.15% and 60.76%
NO production (% as compared to the negative control) (CBD 0.25 weight % in mixture with NeutraZen 0.025%): 47.24% and 49.04% and 51.90%
NO production (% as compared to the negative control) (CBD 0.25 weight % in mixture with NeutraZen 0.05%): 47.24% and 52.87% and 47.47%
NO production (% as compared to the negative control) (CBD 0.25 weight % in mixture with NeutraZen 0.1%): 50.92% and 43.95% and 50.00%
NO production (% as compared to the negative control) (CBD 0.5 weight % in mixture with NeutraZen 0.01%): 0% and 0.63%
NO production (% as compared to the negative control) (CBD 0.5 weight % in mixture with NeutraZen 0.025%): 0%
NO production (% as compared to the negative control) (CBD 0.5 weight % in mixture with NeutraZen 0.05%): 0% and 4.46% and 1.27%
NO production (% as compared to the negative control) (CBD 0.5 weight % in mixture with NeutraZen 0.1%): 0% and 1.27%
NO production (% as compared to the negative control) (CBD 1 weight % in mixture with NeutraZen 0.01%): 0%
NO production (% as compared to the negative control) (CBD 1 weight % in mixture with NeutraZen 0.025%): 0%
NO production (% as compared to the negative control) (CBD 1 weight % in mixture with NeutraZen 0.05%): 0%
NO production (% as compared to the negative control) (CBD 1 weight % in mixture with NeutraZen 0.1%): 0%
NO production (% as compared to the negative control) (CBD 2.5 weight % in mixture with NeutraZen 0.01%): 0%
NO production (% as compared to the negative control) (CBD 2.5 weight % in mixture with NeutraZen 0.025%): 0%
NO production (% as compared to the negative control) (CBD 2.5 weight % in mixture with NeutraZen 0.05%): 0%
NO production (% as compared to the negative control) (CBD 2.5 weight % in mixture with NeutraZen 0.1%): 0%
IC50-NO release (non-linear regression of 3 series of experiments, weight %, for mixtures CBD concentration at the fixed Neutrazen concentration): 0.319 ± 0.006%
Anti-inflammatory ratio: <1
Anti-inflammatory ratio (listed as cannabidiol): less than 1
NO production (% as compared to the negative control) (sample alone at 0.01 weight %): 99.39% and 100.64% and 102.53%
NO production (% as compared to the negative control) (sample alone at 0.025 weight %): 96.93% and 97.45% and 98.10%
NO production (% as compared to the negative control) (sample alone at 0.05 weight %): 97.55% and 89.17% and 93.04%
NO production (% as compared to the negative control) (sample alone at 0.1 weight %): 95.09% and 99.36% and 99.37%
NO production (% as compared to the negative control) (sample alone at 0.25 weight %): 77.91% and 80.25% and 81.65%
NO production (% as compared to the negative control) (sample alone at 0.5 weight %): 2.45% and 5.10% and 2.53%
NO production (% as compared to the negative control) (sample alone at 1 weight %): 0.61% and 1.91% and 1.90%
NO production (% as compared to the negative control) (sample alone at 2.5 weight %): 0.00% and 2.55% and 1.27%
